For data set [1], the system named is AML12. The data set can be described thus: Effect on lipid accumulation in oleic and palmitic acid induced mouse AML12 cells assessed as decrease in triglyceride level at 3 to 30 uM. It is filed as functional, cell-based. Conditions: dose 3-30 µM.
For data set [2], the system named is AML12. Description: Effect on lipid accumulation in oleic and palmitic acid induced mouse AML12 cells assessed as decrease in total cholesterol level. Format: functional, cell-based. The conditions noted are these: dose 3-30 µM.
Data set [3] deals with AML12. The data set can be described thus: Effect on lipid accumulation in oleic and palmitic acid induced mouse AML12 cells assessed as decrease in triglyceride level. It is filed as functional, cell-based. Conditions: dose 3-30 µM.
The test system of data set [4] is AML12. Description: Effect on lipid accumulation in oleic and palmitic acid induced mouse AML12 cells assessed as decrease in total cholesterol level at 3 to 30 uM. Format: functional, cell-based. Conditions: dose 3-30 µM.
The subject of data set [5] is O=C(O)CC(O)(CCc1ccc(-c2ccccc2)cc1)C(=O)O. Description: Binding affinity to SLC13A5 (unknown origin) assessed as Km. Conditions: Homo sapiens.

Results on six compounds are retold here after ChEMBL document CHEMBL5543131, “Discovery of Highly Potent Solute Carrier 13 Member 5 (SLC13A5) Inhibitors for the Treatment of Hyperlipidemia” (J Med Chem, 2024).

Calls of active or inactive are those of the source. No cut-off for these calls is given here.

Chain of Na(+)/citrate cotransporter (Homo sapiens), Q86YT5 (Q86YT5 whole entry): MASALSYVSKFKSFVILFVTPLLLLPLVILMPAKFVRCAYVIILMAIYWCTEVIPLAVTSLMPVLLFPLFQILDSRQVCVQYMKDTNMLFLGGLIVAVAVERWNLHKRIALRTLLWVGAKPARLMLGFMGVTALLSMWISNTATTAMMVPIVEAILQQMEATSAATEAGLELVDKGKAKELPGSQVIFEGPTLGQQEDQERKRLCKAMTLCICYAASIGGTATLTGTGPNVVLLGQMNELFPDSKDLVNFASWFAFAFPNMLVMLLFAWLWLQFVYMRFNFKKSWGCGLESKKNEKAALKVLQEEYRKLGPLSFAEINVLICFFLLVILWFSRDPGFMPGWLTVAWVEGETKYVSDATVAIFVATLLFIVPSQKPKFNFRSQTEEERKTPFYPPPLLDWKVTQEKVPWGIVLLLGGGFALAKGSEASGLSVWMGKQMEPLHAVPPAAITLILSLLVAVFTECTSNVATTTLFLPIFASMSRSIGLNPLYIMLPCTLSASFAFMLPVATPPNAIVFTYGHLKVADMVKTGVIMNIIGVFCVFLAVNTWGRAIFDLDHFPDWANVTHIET

As to `CCn1nccc1-c1ccc(CCC(O)(CC(=O)O)C(=O)O)cc1` (stereo unspecified), in the data set on AML12 [1], the result was inactive. Moreover, the Activity entry with AML12 [2] was “Dose-Dependent Effect”. In the case of `COc1ccccc1-c1ccc(CCC(O)(CC(=O)O)C(=O)O)cc1` (stereo unspecified), the Activity entry in the data set on AML12 [3] and with AML12 [2] was “Dose-Dependent Effect” throughout.

Take `O=C(O)CC(O)(CCc1ccc2ccccc2c1)C(=O)O` (stereo unspecified): the Activity result in the data set with AML12 [3] and in the data set with AML12 [2] was “Dose-Dependent Effect” each time.

In the case of `CC(C)(C)c1ccc(CC[C@@](O)(CC(=O)O)C(=O)O)cc1`, the result with AML12 [4] and in the data set on AML12 [1] was inactive. What is called Km is the concentration of substrate that gives half-maximal velocity. Turning to “Na(+)/citrate cotransporter (Homo sapiens), Q86YT5”, in data set [5], the Michaelis-Menten constant (Km) worked out at 0.19 µM.

Consider `O=C(O)CC(O)(CCc1nc2ccccc2s1)C(=O)O` (stereo unspecified), for which the outcome in the data set on AML12 [1] was inactive. Moreover, the Activity entry in the data set on AML12 [2] was “Dose-Dependent Effect”.
